Reference: patent publication US20080260817A1, “Compositions for the Treatment of Inflammation and Pain Using a Combination of a Cox-2 Selective Inhibitor and a Ltb4 Receptor Antagonist” (priority 2004, published 2008)

Key:
Format in all cases: in vivo
[1] = tested on: collagen-induced arthritis in male DBA/1 mice; experiment: Collagen-induced arthritis in mice (incidence, severity, weight); details: for Weight: in g (unit assumed); for % Incidence: individual inhibitors in the comparison experiment
Experimental: Arthritis is induced in 8-12 week old male DBA/1 mice by injection of 50 micrograms of chick type II collagen (CII) in complete Freunds adjuvant (Sigma) on day 0 at the base of the tail as described in J. Stuart, Annual Rev. Immunol., 2, 199 (1984). Compounds are prepared as a suspension in 0.5% methylcelluose (Sigma, St. Louis, Mo.), 0.025% Tween 20 (Sigma). The COX-2 inhibitors (Example 1 and 2) and LTB4 receptor antagonist (Example 3) are administered alone or a COX-2 inhibitor and an LTB4 receptor antagonist in combination. The compounds are administered in non-arthritic animals by gavage in a volume of 0.1 mL beginning on day 20 post collagen injection and continuing daily until final evaluation on day 55. Animals are boosted on day 21 with 50 micrograms of collagen (CII) in incomplete Freunds adjuvant. The animals are subsequently evaluated several times each week for incidence and severity of arthritis until day 56. Any animal with paw redness or swelling is counted as arthritic. Scoring of severity is carried out using a score of 0-3 for each paw (maximal score of 12/mouse) as described in P. Wooley, et al., Trans. Proc., 15, 180 (1983). The animals are measured for incidence of arthritis and severity in the animals where arthritis is observed. The incidence of arthritis is determined at a gross level by observing the swelling or redness in the paw or digits. Severity is measured with the following guidelines. Briefly, animals displaying four normal paws, i.e., no redness or swelling are scored 0. Any redness or swelling of digits or the paw is scored as 1. Gross swelling of the whole paw or deformity is scored as 2. Ankylosis of joints is scored as 3.
Eight- to twelve-week old male DBA/1 mice were injected at the base of the tail with 50 micrograms of chick type II collagen in CFA. 21 days later, animals were boosted with 50 micrograms chick type II collagen in IFA. […] On day 56 animals were evaluated for arthritis. Any animals displaying inflammation in the paw were included as positive for incidence. In addition, paw swelling was graded on a standard scale of 0-3/paw (total score of 12/animal).

[2] = tested on: collagen-induced arthritis in male DBA/1 mice; experiment: as above; details: Table 4 (FIG. 2); evaluated day 56; treated from day 21; compound C-1 15 mpk bid, compound L-2 150 mpk bid, alone or combined
[3] = tested on: zymosan-stimulated air pouch, cells infiltrated per pouch; experiment: Murine air pouch model, 2 hour zymosan; details: Table 7 (FIG. 1); female Balb/c mice; PO BID from day 5; pouch lavage 2 hours after 1% zymosan on day 7; 30 mpk COX-2 Inhibitor, 300mpk LTB4 RA, alone or combined
Experimental: In the present invention, the anti-inflammatory effects of COX-2 inhibitors and LTB4 inhibitors, both alone and together, can be evaluated using the mouse air pouch model (see Example 1 and FIG. 1). Following the addition of a COX-2 inhibitor, or an LTB4 inhibitor, or both, to a zymosan-stimulated air pouch, results may be reported as the number of cells that have infiltrated per pouch as an indicator of inflammation.
Female Balb/c mice age 8-12 weeks are injected with approximately 5 milliliters of air subcutaneous using a 10 milliliter syringe with a 27-gauge needle and a 0.2 micron acrodisc filter. The animals are anesthetized with CO2/O2 mix, and then the air injection is made subcutaneously in the intrascapular region of the mouse. Animals' pouches are reinflated every 2-3 days with approximately 2-3 milliliters of air, same as above. Dosing of each compound, including Vehicle (0.5% Methylcellulose+0.025% Tween 80) or a COX-2 inhibitor (compound C-1, 15 mpk, BID), or an LTB4 receptor antagonist (compound L-2, 150 mpk, BID), or the COX-2 inhibitor combined with the LTB4 receptor antagonist (compound C-1, 30 mpk+compound L-2 150 mpk BID), starting on day 5 at 6 am. Compounds are given orally (PO) and dosed BID in a volume of 0.2 milliliters per/dose. […] Total cells/mouse is calculated using a coulter counter. […]

[4] = Table 4 (FIG. 2), C-1 15 mpk bid, L-2 150 mpk bid, alone or combined
[5] = Table 4 (FIG. 2), day 56, paw swelling graded 0-3/paw, total score of 12/animal, C-1 15 mpk bid, L-2 150 mpk bid, alone or combined
[6] = Table 6 (FIG. 4), doses not given
[7] = Table 6 (FIG. 4), score 0-3/paw, total 12/animal, doses not given

| Compound | Weight [1, 4] | Severity [1, 5] | Weight [1, 6] | % Incidence [1, 6] [%] | Severity [1, 7] | % Incidence [2] [%] | Total Cells/Mouse [3] |
| --- | --- | --- | --- | --- | --- | --- | --- |
| Cc1ccc(-c2cc(C(F)(F)F)nn2-c2ccc(S(N)(=O)=O)cc2)cc1 [COX-2 Inhib., celecoxib] | 24.66 | 5.1 | 24.66 | 100 | 5.1 | 100 | 40600000 |
| O=C(O)C1(c2ccc3c(c2)OCC(Cc2ccc(-c4ccccc4)cc2)[C@H]3O)CCCC1 (stereo partly drawn) [LTB4 ra, 1-[3-([1,1′-biphenyl]-4-ylmethyl)-3,4-dihydro-4-hydroxy-2H-1-benzopyran-7-yl]-cyclopentanecarboxylic acid, (3S-trans)] | 26.77 | 2.7 | 26.77 | 90 | 2.7 | 90 | 38900000 |
